Here are results for 14 compounds from patent US11236047B2 (ASTEX THERAPEUTICS LIMITED, priority 2017, dated 2022).

The test system of the experiment is SJSA-1 cells. The experiment in a line: Protocol B: SJSA-1 CellTiter-Glo luminescent cell viability assay.
Where [1] appears, read: read-out: SJSA1 IC50, Protocol B, SJSA-1.
Setting [2] is: Homo sapiens, SJSA-1, read-out: SJSA1 IC50 (μM) (Protocol B), SJSA-1, Protocol B.
[3] abbreviates: read-out: SJSA1 IC50 (μM) (Protocol B), SJSA-1, Protocol B.

Structures are written as SMILES. Where two headings read alike, the source gives them in different places.

One may read the IC50 as the point on the concentration scale where inhibition reaches its midpoint.

Description: Protocol B: SJSA-1 and SN40R2 Assays
The CellTiter-Glo® Luminescent Cell Viability Assay is a homogeneous method to determine the number of viable cells in culture based on quantitation of the ATP present, which signals the presence of metabolically active cells. […] 100 μl of CTG reagent (Promega #G7573) was added to all wells and luminescence was measured on the topcount. The EC50 values were determined from a sigmoidal 4 parameter curve fit using XLfit in conjunction with Activity Base (IDBS; Guildford, Surrey, UK).

On to `CCC(O)(c1cc(F)c2c(c1)C(=O)N(Cc1ncc(C#N)cn1)[C@@]2(O[C@H]1CCOC1)c1ccc(Cl)cc1)c1cn(C)cn1` (single isomer, unassigned) [Example 369], for which, under setting [1], the IC50 came out at 0.062 µM. As for `CC(O)(c1cc(F)c2c(c1)C(=O)N(Cc1ccc(Cl)cn1)[C@@]2(OCC1(O)CC1)c1ccc(Cl)cc1)c1ncccn1` (single isomer, unassigned) [Example 396], under setting [2], the IC50 is 0.28 µM.

For the compound `CC(O)(c1cc(F)c2c(c1)C(=O)N(Cc1ncc(Cl)cn1)[C@@]2(OCC1(O)CC1)c1ccc(Cl)cc1)C1CCS(=O)(=O)CC1` (single isomer, unassigned) [Example 397], under setting [2], the IC50 turned out to be 2.5 µM. For `CC(O)(c1cc(F)c2c(c1)C(=O)N(Cc1ncc(Cl)cn1)[C@@]2(OCC1(C(N)=O)CC1)c1ccc(Cl)cc1)C1CCC1` (single isomer, unassigned) [Example 403], the IC50 under setting [3] turned out to be 1.2 µM. Same read-out and setting: under `CC(O)(c1cc(F)c2c(c1)C(=O)N(Cc1ncc(Cl)cn1)[C@@]2(OCC1(C(N)=O)CC1)c1ccc(Cl)cc1)C1CCC1` (single isomer, unassigned) [Example 404] stands 0.095 µM. On the same count and under the same terms, under `CC(O)(c1cc(F)c2c(c1)C(=O)N(Cc1ccc(C#N)cn1)[C@@]2(OCCO)c1ccc(Cl)cc1)C1CCC1` (single isomer, unassigned) [Example 405] stands 0.63 µM; under `CC(O)(c1cc(F)c2c(c1)C(=O)N(Cc1ccc(C#N)cn1)[C@@]2(OCCO)c1ccc(Cl)cc1)C1CCC1` (single isomer, unassigned) [Example 406], 3.9 µM. Take `CCC(O)(c1cc(F)c2c(c1)C(=O)N(Cc1ncc(C#N)cn1)[C@@]2(OC[C@H]1C[C@H](O)C1)c1ccc(Cl)cc1)c1cn(C)cn1` (single isomer, unassigned) [Example 484]: the IC50 under setting [1] turned out to be 4.9 µM. Same read-out and setting: then `CCC(O)(CN1CCN(C)CC1)c1cc(F)c2c(c1)C(=O)N(Cc1ncc(Cl)cn1)[C@@]2(OCCO)c1ccc(Cl)cc1` (single isomer, unassigned) [Example 532], with 0.14 µM; and `CCC(O)(CN1CCNCC1)c1cc(F)c2c(c1)C(=O)N(Cc1ncc(Cl)cn1)[C@@]2(OCC1(C#N)CC1)c1ccc(Cl)cc1` (single isomer, unassigned) [Example 537], with 0.76 µM.

Take `CO[C@]1(c2ccc(Cl)cc2)c2c(F)cc(C(C)(O)c3cn(C)c(C)n3)cc2C(=O)N1Cc1ccc(Cl)cn1` (stereo partly drawn) [Example 161, (3R)-3-(4-Chlorophenyl)-2-[(5-chloropyridin-2-yl)methyl]-6-[1-(1,2-dimethyl-1H-imidazol-4-yl)-1-hydroxyethyl]-4-fluoro-3-methoxy-2,3-dihydro-1H-isoindol-1-one]: the 50% inhibitory concentration (IC50) under setting [3] turned out to be 4.3 µM. Regarding `CO[C@]1(c2ccc(Cl)cc2)c2c(F)cc(C(C)(O)c3cnn(C4CN(C(C)=O)C4)c3)cc2C(=O)N1Cc1ccc(Cl)cn1` (stereo partly drawn) [Example 182, (3R)-6-{1-[1-(1-Acetylazetidin-3-yl)-1H-pyrazol-4-yl]-1-hydroxyethyl}-3-(4-chlorophenyl)-2-[(5-chloropyridin-2-yl)methyl]-4-fluoro-3-methoxy-2,3-dihydro-1H-isoindol-1-one], under setting [2], the IC50 was found to be 0.88 µM.

For `CO[C@]1(c2ccc(Cl)cc2)c2c(F)cc(C(C)(O)c3cnn(CCN(C)C)c3)cc2C(=O)N1Cc1ccc(Cl)cn1` (stereo partly drawn) [Example 191, (3R)-3-(4-Chlorophenyl)-2-[(5-chloropyridin-2-yl)methyl]-6-(1-{1-[2-(dimethylamino)ethyl]-1H-pyrazol-4-yl}-1-hydroxyethyl)-4-fluoro-3-methoxy-2,3-dihydro-1H-isoindol-1-one], the IC50 under setting [2] was 2.5 µM. For the compound `CO[C@]1(c2ccc(Cl)cc2)c2c(F)cc(C(C)(O)c3cnn(CCN(C)C)c3)cc2C(=O)N1Cc1ccc(Cl)cn1` (stereo partly drawn) [Example 192, (3R)-3-(4-Chlorophenyl)-2-[(5-chloropyridin-2-yl)methyl]-6-(1-{1-[2-(dimethylamino)ethyl]-1H-pyrazol-4-yl}-1-hydroxyethyl)-4-fluoro-3-methoxy-2,3-dihydro-1H-isoindol-1-one], the IC50 under setting [3] came out at 1.4 µM.
